One series has as its system adult male C57BL/6 mice. Nature of the series: Conditioned Place Preference (Abuse) Test. It counts as in vivo, mouse. To be noted: mouse, in vivo, ip. The source says: A conditioned place preference (CPP) model was used to assess the reward properties of compounds of formulae (Ie), or a pharmaceutically acceptable salt of any of the foregoing, in adult male C57BL/6 mice. The CPP model apparatus consisted of a Plexiglas© test unit having three (A, B, C) compartments (9 cm×9 cm×16 cm) configured to allow access to all chambers. Compartments A and C had textually distinct flooring and wall marking. Mice were placed in the middle compartment with free access to the other compartments. On day 1 and 2, the “naive chamber preference” was assessed by placing the animal in the middle chamber twice a day (AM and PM) for 30 min on two consecutive days, with the chamber showing the greatest residence time being called the “preferred chamber”. On “drug pairing days” (days 5, 6, 7 and 8) mice were injected IP with vehicle (50 mM citric acid) in the AM in the preferred chamber and the drug/vehicle in the afternoon in the non-preferred chamber for four consecutive days. On the morning of day 9 (the day after the last drug pairing), the “drug chamber preference” was assessed by placing the mouse (absent any injection) in the middle chamber, with free access to all chambers for 30 minutes. This was repeated five days later (day fourteen), with no intervening drug treatment.
The time spent on days 9 and 14 (e.g. […] respectively after the last drug treatment) in the drug associated chamber was the test datum and is represented in FIG. 1. […] In contrast, there was no increase in the non-preferred chamber residence time when the least-preferred chamber was paired with saline, APAP or test compounds 2 or 28 on either days 9 or 14, or days 0 or 5.

For another series, the system named is male Sprague-Dawley rats. Nature of the series: Post-Incisional (Brennan) Pain Test. It counts as in vivo. To be noted: rat, oral; for cumulative pain score, 4 h: 4 h post-dosing; for cumulative pain score, 24 h: 24 h post-dosing. As to the method:
Incisional pain was induced in non-fasted male Sprague-Dawley rats weighing 180-300 g by making a 1-cm plantar incision in the left hind paw and is designed to mimic pain and sensitivity similar to what is reported by patients after surgery. Dosing occurred at the time of incision and spontaneous pain was measured 4 and 24 hours post-dosing using a cumulative pain score. The unrestrained animals were placed on a metal mesh platform and allowed to acclimate for about 15 min/ Each animal was closely observed during a 1-min period repeated every 5 min for 1 h (12 times total). Depending on the position in which the foot was found during the scoring period, a score of 0, 1, or 2 was given. Full weight bearing of the foot (score=0) was present if the skin on the plantar surface of the paw wound was blanched or distorted by the mesh. If the foot was completely off the mesh, or one or more instances of licking or flinching was observed, a score of 2 was recorded and the licking or flinching was noted but not counted. If the plantar surface of the paw touched the mesh without blanching or distorting, a score of 1 was given. The sum of the 12 scores obtained during the 1 h session was calculated (maximum score=24) for each animal. Observations were made during hours 4 and 24. Test articles were administered orally at concentrations of 10, 30 or 100 mg/kg and ketoprofen was administered subcutaneously at a concentration of 10 mg/kg. The control group received the vehicle (sterile water). In Table 6, ‘A’ designates a cumulative pain score of ≤11, ‘B’ designates >11 and ≤16, and ‘C’ designates >16.
The results provided in Table 6 are for oral administration in rats.

The values that follow come from US11242327B2, “Analgesic compounds” (RECURIUM IP HOLDINGS, LLC, priority 2017, dated 2022).

As for `Cc1sc(C23CC(N)(C2)C3)nc1C(F)(F)F.Cl` [Compound 2, 3-(5-Methyl-4-(trifluoromethyl)thiazol-2-yl)bicyclo[1.1.1]pentan-1-amine hydrochloride], the “least preferred (drug associated) chamber residence time” value in the series with adult male C57BL/6 mice is “no increase”.
As to `Cl.NC12CC(c3nc(C(F)(F)F)cs3)(C1)C2` [Compound 1, 3-(4-(Trifluoromethyl)thiazol-2-yl)bicyclo[1.1.1]pentan-1-amine hydrochloride], the “cumulative pain score, 4 h” value was “C (>16)” in the series on male Sprague-Dawley rats (10 mg/kg), “A (a cumulative pain score of ≤11)” in the series with male Sprague-Dawley rats (30 mg/kg) and “A (a cumulative pain score of ≤11)” in the series with male Sprague-Dawley rats (100 mg/kg). Further, the “cumulative pain score, 24 h” value in the series with male Sprague-Dawley rats (10 mg/kg) was “B (>11 and ≤16)”; in the series with male Sprague-Dawley rats (30 mg/kg), “A (a cumulative pain score of ≤11)”; with male Sprague-Dawley rats (100 mg/kg), “A (a cumulative pain score of ≤11)”.
